In patent US7799809B2, “Carboxamide compounds and their use as calpain inhibitors” (Abbott GmbH & Co. KG, priority 2006, dated 2010):

Assays:
Format in all cases: biochemical
cathepsin K = target: T1, cathepsin K (Homo sapiens, UniProt P43235); assay: Cathepsin K enzyme inhibition in vitro (kinetic fluorescence assay); conditions: cathepsin K activated from recombinant human procathepsin K vs calpain I
T1 construct: purchased Calbiochem 342001; host or cells: E. coli
T1 sequence (P43235 115-329): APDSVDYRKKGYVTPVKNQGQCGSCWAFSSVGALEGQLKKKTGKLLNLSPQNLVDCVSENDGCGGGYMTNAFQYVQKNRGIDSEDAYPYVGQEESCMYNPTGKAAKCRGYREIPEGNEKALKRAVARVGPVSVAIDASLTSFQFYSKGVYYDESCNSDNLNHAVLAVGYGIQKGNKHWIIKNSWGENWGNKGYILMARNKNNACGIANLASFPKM
Description: (§1) The following solutions and buffers were employed: • HBS (for 40 ml): 800 μl M HEPES; 2.16 ml 100 mM KCl; 4.8 ml 1M NaCl; 3.59 ml 5% glucose; 60 μl μM MgSO4; 400 μl 100 mM Na pyruvate, 28.19 ml water; pH 7.2-7.5. • lysis buffer (for 20 ml): 400 μl M Tris pH 8.2; 2.74 ml 1M NaCl; 520 μl 0.5M EDTA; 2 ml 10% triton X-100; 0.8 ml (=1:25) CompletePlus (1 tablet/2 ml H2O); 200 μl 100 mM Pefabloc; 13.34 ml water, pH 8.2. • TBST (10×) (for 1 l): 100 mM Tris (12.1 g); 1.5M NaCl (87 g); 1% Tween 20 (10 g), adjusted to pH 8. I Enzyme Inhibition In Vitro: • Testing for blockade of the corresponding enzymic activities was carried out by means of kinetic fluorescence assays (excitation 390 nm, emission 460 nm). • Apparent Ki values were calculated from the experimentally determined IC50 values by the Cheng-Prussoff relation assuming a reversible competitive enzyme inhibition. The Km values of the substrates used under the assay conditions indicated above were: 90 μM (Z-Phe-Arg-AMC, cathepsin B), 10 μM (Z-Gly-Pro-Arg-AMC, cathepsin K), 2 μM (Z-Phe-Arg-AMC, cathepsin L), and 30 μM (Z-Val-Val-Arg-AMC, cathepsin S). • The indicated Ki values are averages of the inhibition constants calculated on the basis of 2 to 4 independent dose-effect plots.
(§2) The following assays were used: • 1. Calpain I: • 20 nM calpain-I—isolated from human erythrocytes (Calbiochem #208713), 100 μM Suc-Leu-Tyr-AMC (Bachem #1-1355) as substrate in buffer with 62 mM imidazole, 0.3 mM CaCl2, 0.10% CHAPS, 0.05% BSA, 1 mM DTT at pH 7.3 and room temperature. • 2. Cathepsin B: • 0.25 nM cathepsin B—isolated from human liver (Calbiochem #219362), 100 μM Z-Phe-Arg-AMC (Bachem #I-1160) as substrate 50 mM MES, 2 mM EDTA, 0.05% Brij 35, 2.5 mM L-cysteine, pH 6.0, room temperature. • 3. Cathepsin K: • 3 nM cathepsin K—activated from recombinant human procathepsin K from E. coli (Calbiochem #342001), 10 μM Z-Gly-Pro-Arg-AMC (Biomol #P-142) as substrate in 50 mM MES, 2 mM EDTA, 0.05% Brij 35, 2.5 mM L-cysteine, pH 6.0, room temperature. • 4. Cathepsin L: • 1 nM cathepsin L—isolated from human liver (Calbiochem #219402), 2 μM Z-Phe-Arg-AMC (Bachem #1-1160) as substrate in 50 mM MES, 2 mM EDTA, 0.05% Brij 35, 2.5 mM L-cysteine, pH 6.0, room temperature. • 5. Cathepsin S: • 0.5 nM recombinant human cathepsin S from E. coli (Calbiochem #219343), 20 μM Z-Val-Val-Arg-AMC (Bachem #1-1540) as substrate in 50 mM MES, 2 mM EDTA, 0.05% Brij 35, 2.5 mM L-cysteine, pH 6.0, room temperature. • The results of the in vitro determination are indicated in Table 1. The following abbreviations are used in Table 1: • The “Calpain activity” column, ++ stands for a calpain Ki (Ki(calpain)) of ≦40 nM and + means: 40 nM<Ki(Calpain)≦100 nM. • The “Sel. cat. B” column indicates the Ki(cathepsin B)/Ki(calpain) ratio. In this connection, ++ means a Ki(cathepsin B)/Ki(calpain) ratio of ≧30 and + means 10≦Ki(cathepsin B)/Ki(calpain)<30. • The “Sel. cat. K” column indicates the Ki(cathepsin K)/Ki(calpain) ratio. In this connection, ++ means a Ki(cathepsin K)/Ki(calpain) ratio of ≧30 and + means 10≦Ki(cathepsin K)/Ki(calpain)<30. • The “Sel. cat. L” column indicates the Ki(cathepsin L)/Ki(calpain) ratio. In this connection, ++ means a Ki(cathepsin L)/Ki(calpain) ratio of ≧50 and + means 30≦Ki(cathepsin L)/Ki(calpain)<50. • The “Sel. cat. S” column indicates the Ki(cathepsin S)/Ki(calpain) ratio. In this connection, ++ means a Ki(cathepsin S)/Ki(calpain) ratio of ≧100 and + means 50≦Ki(cathepsin S)/Ki(calpain)<100.

cathepsin S = target: T2, cathepsin S (Homo sapiens, UniProt P25774); assay: Cathepsin S enzyme inhibition in vitro (kinetic fluorescence assay); conditions: recombinant human cathepsin S vs calpain I
T2 construct: purchased Calbiochem 219343; host or cells: E. coli
Procedure, shortened: (§3)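 Kinetic fluorescence (ex 390/em 460 nm) at room temperature in 50 mM MES, 2 mM EDTA, 0.05% Brij 35, 2.5 mM L-cysteine, pH 6.0. Cathepsin B (liver, 0.25 nM) with 100 μM Z-Phe-Arg-AMC; cathepsin L (liver, 1 nM) with 2 μM Z-Phe-Arg-AMC; recombinant E. coli cathepsin S (0.5 nM) with 20 μM Z-Val-Val-Arg-AMC. Ki via Cheng-Prusoff.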

cathepsin B = target: T3, cathepsin B (Homo sapiens, UniProt P07858); assay: Cathepsin B enzyme inhibition in vitro (kinetic fluorescence assay); conditions: cathepsin B isolated from human liver vs calpain I
T3 construct: cathepsin B—isolated from human liver (Calbiochem #219362); purchased Calbiochem 219362; host or cells: human liver (tissue-derived)
Description: as §1, §2

cathepsin L = target: T4, cathepsin L (Homo sapiens, UniProt P07711); assay: Cathepsin L enzyme inhibition in vitro (kinetic fluorescence assay); conditions: cathepsin L isolated from human liver vs calpain I
T4 construct: cathepsin L—isolated from human liver (Calbiochem #219402); purchased Calbiochem 219402; host or cells: human liver (tissue-derived)
Procedure, shortened: as §3

T4 sequence (P07711 114-333): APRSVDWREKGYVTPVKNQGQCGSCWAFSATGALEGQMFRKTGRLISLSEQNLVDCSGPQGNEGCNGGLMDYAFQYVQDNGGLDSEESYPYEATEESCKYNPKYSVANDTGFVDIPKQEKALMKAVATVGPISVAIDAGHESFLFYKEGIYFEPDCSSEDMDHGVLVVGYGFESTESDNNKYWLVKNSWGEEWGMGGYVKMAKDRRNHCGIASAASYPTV
T2 sequence (P25774 115-331): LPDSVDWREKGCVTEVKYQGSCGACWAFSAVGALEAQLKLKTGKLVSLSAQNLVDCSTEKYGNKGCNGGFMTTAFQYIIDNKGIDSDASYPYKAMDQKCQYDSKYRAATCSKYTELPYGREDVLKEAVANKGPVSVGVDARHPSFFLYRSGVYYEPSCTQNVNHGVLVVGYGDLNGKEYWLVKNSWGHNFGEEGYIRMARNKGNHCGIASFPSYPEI

| Compound | Sel cat. K: Ki(cathepsin K)/Ki(calpain) ratio (cathepsin K) | Sel cat. S: Ki(cathepsin S)/Ki(calpain) ratio (cathepsin S) | Sel cat. B: Ki(cathepsin B)/Ki(calpain) ratio (cathepsin B) | Sel cat. L: Ki(cathepsin L)/Ki(calpain) ratio (cathepsin L) |
| --- | --- | --- | --- | --- |
| NC(=O)C(=O)C(Cc1ccccc1)NC(=O)c1cccnc1-n1ccc(-c2c(Cl)cccc2Cl)n1 (centres unmarked) [Example 95, N-[3-Amino-2,3-dioxo-1-(phenylmethyl)propyl]-2-[3-(2,6-dichlorophenyl)-1H-pyrazol-1-yl]pyridine-3-carboxamide] | ++ (++ means a Ki(cathepsin K)/Ki(calpain) ratio of ≧30) | ++ (++ means a Ki(cathepsin S)/Ki(calpain) ratio of ≧100) | ++ (++ means a Ki(cathepsin B)/Ki(calpain) ratio of ≧30) | ++ (++ means a Ki(cathepsin L)/Ki(calpain) ratio of ≧50) |
| NC(=O)C(=O)C(Cc1ccccc1)NC(=O)c1cccnc1-n1ccc(-c2ccc(Cl)cc2Cl)n1 (centres unmarked) [Example 79, N-(3-Amino-1-benzyl-2,3-dioxopropyl)-2-[3-(2,4-dichlorophenyl)-1H-pyrazol-1-yl]nicotinamide] | ++ (++ means a Ki(cathepsin K)/Ki(calpain) ratio of ≧30) | ++ (++ means a Ki(cathepsin S)/Ki(calpain) ratio of ≧100) | ++ (++ means a Ki(cathepsin B)/Ki(calpain) ratio of ≧30) | ++ (++ means a Ki(cathepsin L)/Ki(calpain) ratio of ≧50) |
| COc1ccc(CC(NC(=O)c2cccnc2-n2ccc(-c3ccc(F)cc3)n2)C(=O)C(N)=O)cc1 (centres unmarked) [Example 81, N-[3-Amino-1-(4-methoxybenzyl)-2,3-dioxopropyl]-2-[3-(4-fluorophenyl)-1H-pyrazol-1-yl]nicotinamide] | + (+ means 10≦Ki(cathepsin K)/Ki(calpain)<30) | ++ (++ means a Ki(cathepsin S)/Ki(calpain) ratio of ≧100) | + (+ means 10≦Ki(cathepsin B)/Ki(calpain)<30) | ++ (++ means a Ki(cathepsin L)/Ki(calpain) ratio of ≧50) |
| N-[3-Amino-2,3-dioxo-1-(phenylmethyl)propyl]-2-[3-(3,5-dichlorophenyl)-1H-pyrazol-1-yl]pyridine-3-carboxamide [Example 89] | + (+ means 10≦Ki(cathepsin K)/Ki(calpain)<30) | ++ (++ means a Ki(cathepsin S)/Ki(calpain) ratio of ≧100) | + (+ means 10≦Ki(cathepsin B)/Ki(calpain)<30) | ++ (++ means a Ki(cathepsin L)/Ki(calpain) ratio of ≧50) |
| NC(=O)C(=O)C(Cc1ccccc1)NC(=O)c1cccnc1-n1ccc(C23CC4CC(CC(C4)C2)C3)n1 (centres unmarked) [Example 193, N-[3-Amino-2,3-dioxo-1-(phenylmethyl)propyl]-2-(3-tricyclo[3.3.1.1^3,7]dec-1-yl-1H-pyrazol-1-yl)pyridine-3-carboxamide] | ++ (++ means a Ki(cathepsin K)/Ki(calpain) ratio of ≧30) | ++ (++ means a Ki(cathepsin S)/Ki(calpain) ratio of ≧100) | ++ (++ means a Ki(cathepsin B)/Ki(calpain) ratio of ≧30) | ++ (++ means a Ki(cathepsin L)/Ki(calpain) ratio of ≧50) |
| NC(=O)C(=O)C(Cc1ccccc1)NC(=O)c1cccnc1-n1ccc(-c2cccc(N3CCCC3)c2)n1 (centres unmarked) [Example 74, N-(3-Amino-1-benzyl-2,3-dioxopropyl)-2-[3-(3-pyrrolidin-1-ylphenyl)-1H-pyrazol-1-yl]nicotinamide] | ++ (++ means a Ki(cathepsin K)/Ki(calpain) ratio of ≧30) | ++ (++ means a Ki(cathepsin S)/Ki(calpain) ratio of ≧100) | ++ (++ means a Ki(cathepsin B)/Ki(calpain) ratio of ≧30) | – |
| NC(=O)C(=O)C(Cc1ccccc1)NC(=O)c1cc(Cl)cnc1-n1ccc(-c2ccccc2)n1 (centres unmarked) [Example 27, N-(3-Amino-1-benzyl-2,3-dioxopropyl)-5-chloro-2-(3-phenyl-1H-pyrazol-1-yl)nicotinamide] | + (+ means 10≦Ki(cathepsin K)/Ki(calpain)<30) | – | ++ (++ means a Ki(cathepsin B)/Ki(calpain) ratio of ≧30) | + (+ means 30≦Ki(cathepsin L)/Ki(calpain)<50) |
| NC(=O)C(=O)C(Cc1ccccc1)NC(=O)c1cc(Cl)cnc1-n1ccc(-c2ccc(N3CCOCC3)cc2)n1 (centres unmarked) [Example 31, N-(3-Amino-1-benzyl-2,3-dioxopropyl)-5-chloro-2-[3-(4-morpholin-4-ylphenyl)-1H-pyrazol-1-yl]nicotinamide] | + (+ means 10≦Ki(cathepsin K)/Ki(calpain)<30) | – | ++ (++ means a Ki(cathepsin B)/Ki(calpain) ratio of ≧30) | + (+ means 30≦Ki(cathepsin L)/Ki(calpain)<50) |
| N#Cc1cnc(-n2ccc(-c3ccccc3)n2)c(C(=O)NC(Cc2ccccc2)C(=O)C(N)=O)c1 (centres unmarked) [Example 82, N-(3-Amino-1-benzyl-2,3-dioxopropyl)-5-cyano-2-(3-phenyl-1H-pyrazol-1-yl)nicotinamide] | ++ (++ means a Ki(cathepsin K)/Ki(calpain) ratio of ≧30) | – | ++ (++ means a Ki(cathepsin B)/Ki(calpain) ratio of ≧30) | ++ (++ means a Ki(cathepsin L)/Ki(calpain) ratio of ≧50) |
| COc1ccc(OC)c(-c2ccn(-c3ncccc3C(=O)NC(Cc3ccccc3)C(=O)C(N)=O)n2)c1 (centres unmarked) [Example 151, N-[3-Amino-2,3-dioxo-1-(phenylmethyl)propyl]-2-{3-[2,5-bis(methyloxy)phenyl]-1H-pyrazol-1-yl}pyridine-3-carboxamide] | ++ (++ means a Ki(cathepsin K)/Ki(calpain) ratio of ≧30) | – | ++ (++ means a Ki(cathepsin B)/Ki(calpain) ratio of ≧30) | ++ (++ means a Ki(cathepsin L)/Ki(calpain) ratio of ≧50) |
